Experimental data as given in ChEMBL document CHEMBL3991601, “The target landscape of clinical kinase drugs” (Science, 2017).
Active and inactive are the calls of the source.

Assays:
ADP/ATP translocase 2 = target: T1, ADP/ATP translocase 2 (Homo sapiens, UniProt P05141)
T1 sequence (P05141 whole entry): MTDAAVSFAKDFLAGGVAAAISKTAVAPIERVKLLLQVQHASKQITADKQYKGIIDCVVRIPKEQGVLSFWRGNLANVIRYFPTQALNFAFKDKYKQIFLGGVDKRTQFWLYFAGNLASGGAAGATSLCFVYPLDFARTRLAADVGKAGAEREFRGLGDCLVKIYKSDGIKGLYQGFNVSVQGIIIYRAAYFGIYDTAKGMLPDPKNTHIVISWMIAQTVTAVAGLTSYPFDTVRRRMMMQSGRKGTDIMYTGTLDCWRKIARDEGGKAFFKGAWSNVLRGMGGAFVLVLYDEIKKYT

GTP-binding protein 4 = GTP-binding protein 4 (Homo sapiens, UniProt Q9BZE4)
[1] = target: Serine/threonine-protein kinase N1 (Homo sapiens, UniProt Q16512)
[2] = target: Cyclin-dependent kinase 13 (Homo sapiens, UniProt Q14004)
[3] = target: T2, Discoidin domain-containing receptor 2 (Homo sapiens, UniProt Q16832)
T2 sequence (Q16832 whole entry): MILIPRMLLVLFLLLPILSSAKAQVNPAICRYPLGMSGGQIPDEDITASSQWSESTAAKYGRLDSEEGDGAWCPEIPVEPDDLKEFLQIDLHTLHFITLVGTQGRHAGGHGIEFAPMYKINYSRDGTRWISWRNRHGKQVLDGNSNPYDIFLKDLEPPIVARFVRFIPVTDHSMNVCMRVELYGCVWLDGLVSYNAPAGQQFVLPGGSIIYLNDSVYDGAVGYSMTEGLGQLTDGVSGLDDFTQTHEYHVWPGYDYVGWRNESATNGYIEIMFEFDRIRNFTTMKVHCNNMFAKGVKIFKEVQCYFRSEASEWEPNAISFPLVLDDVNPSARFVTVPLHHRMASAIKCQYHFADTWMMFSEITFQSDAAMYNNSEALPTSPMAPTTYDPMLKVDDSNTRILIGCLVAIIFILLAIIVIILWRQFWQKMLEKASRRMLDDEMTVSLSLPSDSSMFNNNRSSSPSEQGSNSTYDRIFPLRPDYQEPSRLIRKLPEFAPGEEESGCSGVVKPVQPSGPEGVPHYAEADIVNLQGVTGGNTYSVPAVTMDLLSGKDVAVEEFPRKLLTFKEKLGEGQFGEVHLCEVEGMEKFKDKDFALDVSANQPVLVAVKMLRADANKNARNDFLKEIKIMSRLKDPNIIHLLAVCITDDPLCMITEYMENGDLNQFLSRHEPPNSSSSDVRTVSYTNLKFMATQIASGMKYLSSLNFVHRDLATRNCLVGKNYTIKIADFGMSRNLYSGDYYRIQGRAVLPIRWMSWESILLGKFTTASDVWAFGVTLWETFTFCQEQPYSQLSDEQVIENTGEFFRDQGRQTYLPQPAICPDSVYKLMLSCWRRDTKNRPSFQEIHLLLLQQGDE

[4] = target: T3, Serine/threonine-protein kinase Nek2 (Homo sapiens, UniProt P51955)
T3 sequence (P51955 whole entry): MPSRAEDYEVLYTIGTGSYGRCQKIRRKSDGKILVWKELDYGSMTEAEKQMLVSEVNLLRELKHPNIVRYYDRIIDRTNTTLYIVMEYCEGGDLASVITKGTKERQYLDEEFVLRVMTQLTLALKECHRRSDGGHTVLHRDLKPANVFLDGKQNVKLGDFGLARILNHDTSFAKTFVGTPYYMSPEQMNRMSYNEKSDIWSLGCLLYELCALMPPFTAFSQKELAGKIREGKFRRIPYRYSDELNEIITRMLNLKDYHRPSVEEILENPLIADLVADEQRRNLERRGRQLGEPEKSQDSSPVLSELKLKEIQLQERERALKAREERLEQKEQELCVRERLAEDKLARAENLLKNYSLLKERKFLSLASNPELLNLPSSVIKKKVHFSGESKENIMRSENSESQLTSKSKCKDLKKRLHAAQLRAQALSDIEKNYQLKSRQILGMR

[5] = target: T4, Phosphorylase b kinase gamma catalytic chain, liver/testis isoform (Homo sapiens, UniProt P15735)
T4 sequence (P15735 whole entry): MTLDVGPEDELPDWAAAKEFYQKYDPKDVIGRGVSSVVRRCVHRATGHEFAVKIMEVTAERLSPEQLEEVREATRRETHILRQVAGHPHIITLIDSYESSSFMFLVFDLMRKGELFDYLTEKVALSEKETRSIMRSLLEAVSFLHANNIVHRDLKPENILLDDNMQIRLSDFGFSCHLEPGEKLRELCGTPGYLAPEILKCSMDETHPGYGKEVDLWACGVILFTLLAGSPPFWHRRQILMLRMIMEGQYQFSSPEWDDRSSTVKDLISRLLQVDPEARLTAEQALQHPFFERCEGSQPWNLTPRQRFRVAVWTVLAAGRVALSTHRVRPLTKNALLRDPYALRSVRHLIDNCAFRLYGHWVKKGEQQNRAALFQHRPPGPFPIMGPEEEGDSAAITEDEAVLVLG

Midasin = Midasin (Homo sapiens, UniProt Q9NU22)
[6] = target: GTP-binding nuclear protein Ran (Homo sapiens, UniProt P62826)
[7] = target: PAS domain-containing serine/threonine-protein kinase (Homo sapiens, UniProt Q96RG2)
TGF-beta receptor type-1 = target: T5, TGF-beta receptor type-1 (Homo sapiens, UniProt P36897)
T5 sequence (P36897 whole entry): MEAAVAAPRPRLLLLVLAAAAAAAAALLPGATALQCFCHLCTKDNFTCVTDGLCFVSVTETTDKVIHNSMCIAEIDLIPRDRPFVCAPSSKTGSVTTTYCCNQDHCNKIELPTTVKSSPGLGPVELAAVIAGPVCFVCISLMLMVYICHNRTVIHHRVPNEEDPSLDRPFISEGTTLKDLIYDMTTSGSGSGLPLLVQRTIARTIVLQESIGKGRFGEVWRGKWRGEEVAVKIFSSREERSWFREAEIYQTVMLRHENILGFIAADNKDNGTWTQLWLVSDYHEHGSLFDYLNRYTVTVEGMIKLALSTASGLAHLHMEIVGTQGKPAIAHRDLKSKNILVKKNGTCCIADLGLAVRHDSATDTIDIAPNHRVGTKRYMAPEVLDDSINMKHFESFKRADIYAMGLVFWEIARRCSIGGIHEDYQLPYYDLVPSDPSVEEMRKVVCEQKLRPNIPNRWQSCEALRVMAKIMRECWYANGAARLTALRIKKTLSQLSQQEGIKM

Activated CDC42 kinase 1 = Activated CDC42 kinase 1 (Homo sapiens, UniProt Q07912)
Note: in the data inactive means no Kd found up to 30 µM.

Activated CDC42 kinase 1, sequence (Q07912 whole entry): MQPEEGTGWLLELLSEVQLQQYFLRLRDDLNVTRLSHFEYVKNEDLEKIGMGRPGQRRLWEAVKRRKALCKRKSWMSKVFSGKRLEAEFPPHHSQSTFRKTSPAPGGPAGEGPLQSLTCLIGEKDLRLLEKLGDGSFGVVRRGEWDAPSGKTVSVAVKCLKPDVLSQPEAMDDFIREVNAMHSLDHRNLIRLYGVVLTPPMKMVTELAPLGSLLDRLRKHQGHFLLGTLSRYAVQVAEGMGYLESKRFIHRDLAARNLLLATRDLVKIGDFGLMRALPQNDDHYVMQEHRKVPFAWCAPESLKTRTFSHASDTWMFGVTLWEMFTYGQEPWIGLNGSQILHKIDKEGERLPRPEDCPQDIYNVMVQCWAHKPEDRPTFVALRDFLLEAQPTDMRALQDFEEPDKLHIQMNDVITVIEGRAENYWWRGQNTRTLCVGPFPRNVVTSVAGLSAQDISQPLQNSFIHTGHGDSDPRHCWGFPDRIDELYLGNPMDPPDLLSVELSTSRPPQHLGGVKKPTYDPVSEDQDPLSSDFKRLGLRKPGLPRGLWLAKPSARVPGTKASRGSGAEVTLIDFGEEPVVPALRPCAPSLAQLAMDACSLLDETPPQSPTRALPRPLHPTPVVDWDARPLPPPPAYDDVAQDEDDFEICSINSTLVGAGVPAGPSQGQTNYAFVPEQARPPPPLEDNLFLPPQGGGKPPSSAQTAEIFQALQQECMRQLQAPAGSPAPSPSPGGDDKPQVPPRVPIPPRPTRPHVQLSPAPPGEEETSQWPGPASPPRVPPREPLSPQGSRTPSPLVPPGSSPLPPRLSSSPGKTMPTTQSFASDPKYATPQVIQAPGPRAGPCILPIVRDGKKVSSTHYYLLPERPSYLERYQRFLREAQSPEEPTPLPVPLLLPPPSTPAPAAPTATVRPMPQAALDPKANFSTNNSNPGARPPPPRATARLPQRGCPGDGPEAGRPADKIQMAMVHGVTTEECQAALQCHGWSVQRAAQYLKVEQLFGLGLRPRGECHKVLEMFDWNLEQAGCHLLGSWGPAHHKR
Serine/threonine-protein kinase N1, sequence (Q16512 whole entry): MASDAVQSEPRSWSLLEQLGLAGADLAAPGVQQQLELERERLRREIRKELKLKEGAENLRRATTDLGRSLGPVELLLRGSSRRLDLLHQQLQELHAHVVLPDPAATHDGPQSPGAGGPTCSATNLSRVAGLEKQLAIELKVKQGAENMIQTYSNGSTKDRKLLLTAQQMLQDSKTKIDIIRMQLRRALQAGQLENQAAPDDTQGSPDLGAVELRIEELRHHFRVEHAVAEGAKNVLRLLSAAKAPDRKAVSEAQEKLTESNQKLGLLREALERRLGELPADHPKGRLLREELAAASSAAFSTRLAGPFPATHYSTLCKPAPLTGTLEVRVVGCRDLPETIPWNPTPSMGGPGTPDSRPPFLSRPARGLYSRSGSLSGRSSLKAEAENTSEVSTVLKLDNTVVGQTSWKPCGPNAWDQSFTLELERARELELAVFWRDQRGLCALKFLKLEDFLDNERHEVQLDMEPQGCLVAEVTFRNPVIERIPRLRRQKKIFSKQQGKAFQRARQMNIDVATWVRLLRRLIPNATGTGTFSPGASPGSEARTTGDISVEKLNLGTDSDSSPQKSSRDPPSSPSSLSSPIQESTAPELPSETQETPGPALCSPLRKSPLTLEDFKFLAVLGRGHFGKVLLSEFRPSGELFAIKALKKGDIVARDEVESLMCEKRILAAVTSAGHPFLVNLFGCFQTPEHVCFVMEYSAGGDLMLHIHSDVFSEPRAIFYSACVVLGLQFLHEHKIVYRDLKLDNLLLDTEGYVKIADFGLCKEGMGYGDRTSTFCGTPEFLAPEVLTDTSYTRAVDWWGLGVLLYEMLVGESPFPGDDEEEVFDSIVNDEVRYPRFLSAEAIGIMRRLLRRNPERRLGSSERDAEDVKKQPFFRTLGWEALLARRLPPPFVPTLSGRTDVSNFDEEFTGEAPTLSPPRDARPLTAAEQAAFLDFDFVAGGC
PAS domain-containing serine/threonine-protein kinase, sequence (Q96RG2 whole entry, the tested form may be a part): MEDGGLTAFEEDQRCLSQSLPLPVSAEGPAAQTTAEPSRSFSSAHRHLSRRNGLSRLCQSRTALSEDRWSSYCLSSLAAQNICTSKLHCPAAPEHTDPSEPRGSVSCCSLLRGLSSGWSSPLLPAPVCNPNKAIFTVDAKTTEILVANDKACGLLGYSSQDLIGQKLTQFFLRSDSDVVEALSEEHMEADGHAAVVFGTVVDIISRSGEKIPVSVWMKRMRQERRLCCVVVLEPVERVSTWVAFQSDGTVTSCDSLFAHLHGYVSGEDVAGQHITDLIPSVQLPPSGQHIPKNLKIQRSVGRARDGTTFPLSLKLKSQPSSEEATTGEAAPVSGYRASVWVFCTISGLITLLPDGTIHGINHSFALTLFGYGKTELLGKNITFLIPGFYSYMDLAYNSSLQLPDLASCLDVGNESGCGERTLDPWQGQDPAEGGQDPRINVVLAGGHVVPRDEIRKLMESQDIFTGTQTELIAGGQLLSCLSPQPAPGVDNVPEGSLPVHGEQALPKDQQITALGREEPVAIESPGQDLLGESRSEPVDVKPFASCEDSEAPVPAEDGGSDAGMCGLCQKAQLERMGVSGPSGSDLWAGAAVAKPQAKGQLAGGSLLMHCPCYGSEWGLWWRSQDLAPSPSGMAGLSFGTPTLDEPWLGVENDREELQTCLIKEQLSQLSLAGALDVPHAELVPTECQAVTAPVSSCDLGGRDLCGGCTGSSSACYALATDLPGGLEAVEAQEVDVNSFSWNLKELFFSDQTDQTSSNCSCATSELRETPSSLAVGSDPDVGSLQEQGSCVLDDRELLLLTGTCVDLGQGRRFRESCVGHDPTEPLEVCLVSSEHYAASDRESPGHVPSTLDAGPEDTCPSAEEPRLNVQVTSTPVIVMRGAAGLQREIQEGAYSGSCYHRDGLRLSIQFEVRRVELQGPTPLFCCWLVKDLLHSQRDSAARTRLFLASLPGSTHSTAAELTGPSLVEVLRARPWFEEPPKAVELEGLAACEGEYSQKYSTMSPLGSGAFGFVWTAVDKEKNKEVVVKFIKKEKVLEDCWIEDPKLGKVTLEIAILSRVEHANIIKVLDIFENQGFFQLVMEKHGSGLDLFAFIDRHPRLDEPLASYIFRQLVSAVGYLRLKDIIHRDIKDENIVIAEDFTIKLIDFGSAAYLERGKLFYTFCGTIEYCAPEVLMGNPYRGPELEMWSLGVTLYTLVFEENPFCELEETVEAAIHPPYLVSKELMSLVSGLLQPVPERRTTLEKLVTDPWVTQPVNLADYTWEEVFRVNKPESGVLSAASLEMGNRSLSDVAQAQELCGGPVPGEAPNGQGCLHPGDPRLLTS
Cyclin-dependent kinase 13, sequence (Q14004 whole entry, the tested form may be a part): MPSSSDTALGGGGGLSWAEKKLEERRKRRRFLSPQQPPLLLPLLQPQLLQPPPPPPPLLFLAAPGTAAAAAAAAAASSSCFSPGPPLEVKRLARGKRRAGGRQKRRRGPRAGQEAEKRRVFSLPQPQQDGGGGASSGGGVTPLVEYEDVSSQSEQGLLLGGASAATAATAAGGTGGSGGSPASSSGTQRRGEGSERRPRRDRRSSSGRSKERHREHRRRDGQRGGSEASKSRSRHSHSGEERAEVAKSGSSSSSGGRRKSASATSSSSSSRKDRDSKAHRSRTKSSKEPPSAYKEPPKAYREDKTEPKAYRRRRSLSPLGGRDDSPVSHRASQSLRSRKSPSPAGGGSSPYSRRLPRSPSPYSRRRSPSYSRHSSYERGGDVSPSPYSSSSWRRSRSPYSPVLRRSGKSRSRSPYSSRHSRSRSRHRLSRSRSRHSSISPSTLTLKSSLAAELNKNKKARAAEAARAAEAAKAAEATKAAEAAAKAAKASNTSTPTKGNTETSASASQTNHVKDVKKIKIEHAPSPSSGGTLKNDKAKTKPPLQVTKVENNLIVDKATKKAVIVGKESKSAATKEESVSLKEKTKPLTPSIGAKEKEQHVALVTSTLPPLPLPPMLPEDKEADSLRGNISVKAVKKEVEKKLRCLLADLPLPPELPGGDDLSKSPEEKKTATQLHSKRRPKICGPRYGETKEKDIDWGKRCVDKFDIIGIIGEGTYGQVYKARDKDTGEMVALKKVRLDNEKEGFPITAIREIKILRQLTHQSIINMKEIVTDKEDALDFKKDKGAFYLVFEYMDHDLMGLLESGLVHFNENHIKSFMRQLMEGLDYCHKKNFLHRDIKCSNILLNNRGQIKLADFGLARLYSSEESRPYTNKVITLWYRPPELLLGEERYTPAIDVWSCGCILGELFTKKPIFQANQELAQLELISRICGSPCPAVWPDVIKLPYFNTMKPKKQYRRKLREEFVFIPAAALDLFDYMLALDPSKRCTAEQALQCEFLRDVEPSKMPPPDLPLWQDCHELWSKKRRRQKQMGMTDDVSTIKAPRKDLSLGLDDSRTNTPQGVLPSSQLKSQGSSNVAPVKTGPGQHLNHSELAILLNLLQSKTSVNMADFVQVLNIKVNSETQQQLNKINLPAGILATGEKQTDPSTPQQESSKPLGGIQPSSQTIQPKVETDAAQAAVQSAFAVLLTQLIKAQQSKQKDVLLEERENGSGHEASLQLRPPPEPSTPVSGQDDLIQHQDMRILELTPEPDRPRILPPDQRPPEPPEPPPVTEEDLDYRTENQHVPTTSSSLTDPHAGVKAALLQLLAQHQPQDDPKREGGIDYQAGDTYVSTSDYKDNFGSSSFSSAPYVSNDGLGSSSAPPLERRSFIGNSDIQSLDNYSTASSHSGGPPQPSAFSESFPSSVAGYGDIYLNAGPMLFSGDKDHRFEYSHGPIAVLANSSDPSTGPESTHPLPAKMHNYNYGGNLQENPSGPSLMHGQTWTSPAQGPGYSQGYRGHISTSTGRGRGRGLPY

C=CC(=O)Nc1cc2c(Nc3ccc(F)c(Cl)c3)ncnc2cc1C#CC(C)(C)N1CCN(C)CC1 [AV-412 FREE BASE]
Kd (ADP/ATP translocase 2): > 30 µM (inactive) | Kd (GTP-binding protein 4): > 30 µM (inactive) | Kd [1]: > 30 µM (inactive) | Kd [2]: > 30 µM (inactive) | Kd [3]: > 30 µM (inactive) | Kd [4]: > 30 µM (inactive) | Kd [5]: > 30 µM (inactive) | Kd (Midasin): > 30 µM (inactive) | Kd [6]: > 30 µM (inactive) | Kd [7]: > 30 µM (inactive) | Kd (TGF-beta receptor type-1): > 30 µM (inactive) | Kd (Activated CDC42 kinase 1): > 30 µM (inactive)

C[C@@H](NC(=O)c1ncnc(N)c1Cl)c1ncc(C(=O)Nc2cc(C(F)(F)F)c(Cl)cn2)s1 [TOVORAFENIB]
Kd (ADP/ATP translocase 2): > 30 µM (inactive) | Kd (GTP-binding protein 4): > 30 µM (inactive) | Kd [1]: > 30 µM (inactive) | Kd [2]: > 30 µM (inactive) | Kd [3]: 0.227 µM (active) | Kd [4]: > 30 µM (inactive) | Kd [5]: > 30 µM (inactive) | Kd (Midasin): > 30 µM (inactive) | Kd [6]: > 30 µM (inactive) | Kd [7]: > 30 µM (inactive) | Kd (TGF-beta receptor type-1): > 30 µM (inactive) | Kd (Activated CDC42 kinase 1): > 30 µM (inactive)

NC(=O)Nc1cc(-c2cccc(F)c2)sc1C(=O)N[C@H]1CCCNC1 [AZD-7762]
Kd (ADP/ATP translocase 2): > 30 µM (inactive) | Kd (GTP-binding protein 4): > 30 µM (inactive) | Kd [1]: 2.16 µM (active) | Kd [2]: > 30 µM (inactive) | Kd [3]: > 30 µM (inactive) | Kd [4]: > 30 µM (inactive) | Kd [5]: > 30 µM (inactive) | Kd (Midasin): > 30 µM (inactive) | Kd [6]: > 30 µM (inactive) | Kd [7]: > 30 µM (inactive) | Kd (TGF-beta receptor type-1): > 30 µM (inactive) | Kd (Activated CDC42 kinase 1): 1.09 µM (active)

Cn1cc(-c2cnn3c(N)c(Br)c([C@@H]4CCCNC4)nc23)cn1 [SCH-900776]
Kd (ADP/ATP translocase 2): > 30 µM (inactive) | Kd (GTP-binding protein 4): > 30 µM (inactive) | Kd [1]: > 30 µM (inactive) | Kd [2]: > 30 µM (inactive) | Kd [3]: > 30 µM (inactive) | Kd [4]: > 30 µM (inactive) | Kd [5]: > 30 µM (inactive) | Kd (Midasin): > 30 µM (inactive) | Kd [6]: > 30 µM (inactive) | Kd [7]: > 30 µM (inactive) | Kd (TGF-beta receptor type-1): > 30 µM (inactive) | Kd (Activated CDC42 kinase 1): > 30 µM (inactive)

FC(F)(F)c1ccc(/C=C/c2nc(COc3ccc(CCCCn4ccnn4)cc3)co2)cc1 [MUBRITINIB]
Kd (ADP/ATP translocase 2): > 30 µM (inactive) | Kd (GTP-binding protein 4): > 30 µM (inactive) | Kd [1]: > 30 µM (inactive) | Kd [2]: > 30 µM (inactive) | Kd [3]: > 30 µM (inactive) | Kd [4]: > 30 µM (inactive) | Kd [5]: > 30 µM (inactive) | Kd (Midasin): > 30 µM (inactive) | Kd [6]: > 30 µM (inactive) | Kd [7]: > 30 µM (inactive) | Kd (TGF-beta receptor type-1): > 30 µM (inactive) | Kd (Activated CDC42 kinase 1): > 30 µM (inactive)
